Reference: the supplement of paper PMC10307832

How the values were obtained:
Experiment in all cases: relative viability (nuclei count vs DMSO), 5 days (fraction); higher = more cells survive
[1] = tested on: NCI-H1993
Method in brief: (§1)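 Medians of duplicate plates are given as relative viability. That measure is the nuclei count in treated wells divided by the count in vehicle wells. Counts were taken on 4× images of lung cancer cell lines in 1536-well plates, 5 days after pin-tool dosing the day after seeding with one drug alone or a fixed anchor-drug dose plus five library-drug doses (not always all listed) in √10 steps.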

[2] = tested on: NCI-H650
Method in brief: as §1

[3] = tested on: BEN
Method in brief: as §1

[4] = tested on: LU99A
Method in brief: as §1

[5] = tested on: HOP-62
Method in brief: as §1

[6] = tested on: NCI-H2347
Method in brief: as §1

[7] = tested on: ChaGo-K-1
Method in brief: as §1

[8] = tested on: NCI-H1793
Method in brief: as §1

[9] = tested on: NCI-H441
Method in brief: as §1

[10] = tested on: NCI-H727
Method in brief: as §1

[11] = tested on: LXF-289
Method in brief: as §1

[12] = tested on: CAL-12T
Method in brief: as §1

[13] = tested on: NCI-H1975
Method in brief: as §1

[14] = tested on: NCI-H358
Method in brief: as §1

[15] = tested on: NCI-H2342
Method in brief: as §1

[16] = tested on: EPLC-272H
Method in brief: as §1

[17] = tested on: NCI-H460
Method in brief: as §1

[18] = tested on: A-427
Method in brief: as §1

[19] = tested on: NCI-H1395
Method in brief: as §1

[20] = tested on: LCLC-103H
Method in brief: as §1

[21] = tested on: NCI-H1666
Method in brief: as §1

[22] = tested on: NCI-H2009
Method in brief: as §1

[23] = tested on: COR-L 105
Method in brief: as §1

[24] = tested on: SK-MES-1
Method in brief: as §1

[25] = tested on: NCI-H1650
Method in brief: as §1

Nc1cccc2c1CN(C1CCC(=O)NC1=O)C2=O (stereo not drawn) [Lenalidomide] + NC(=O)Nc1cc(-c2cccc(F)c2)sc1C(=O)N[C@H]1CCCNC1 [AZD7762] (partner 0.2 µM)
relative viability ([1]; first compound 0.253 µM): 0.587
relative viability ([1]; first compound 0.8 µM): 0.646
relative viability ([1]; first compound 2.53 µM): 0.702
relative viability ([1]; first compound 8 µM): 0.539
relative viability ([2]; first compound 0.253 µM): 1.06
relative viability ([2]; first compound 0.8 µM): 0.927
relative viability ([2]; first compound 2.53 µM): 1.06
relative viability ([2]; first compound 8 µM): 0.89
relative viability ([3]; first compound 0.253 µM): 0.783
relative viability ([3]; first compound 0.8 µM): 0.503
relative viability ([3]; first compound 2.53 µM): 0.701
relative viability ([3]; first compound 8 µM): 0.563
relative viability ([4]; first compound 0.253 µM): 0.311
relative viability ([4]; first compound 0.8 µM): 0.341
relative viability ([4]; first compound 2.53 µM): 0.397
relative viability ([4]; first compound 8 µM): 0.257
relative viability ([5]; first compound 0.253 µM): 0.552
relative viability ([5]; first compound 0.8 µM): 0.838
relative viability ([5]; first compound 2.53 µM): 0.711
relative viability ([5]; first compound 8 µM): 0.533
relative viability ([6]; first compound 0.253 µM): 0.787
relative viability ([6]; first compound 0.8 µM): 0.689
relative viability ([6]; first compound 2.53 µM): 0.811
relative viability ([6]; first compound 8 µM): 0.703
relative viability ([7]; first compound 0.253 µM): 0.916
relative viability ([7]; first compound 0.8 µM): 0.853
relative viability ([7]; first compound 2.53 µM): 1.02
relative viability ([7]; first compound 8 µM): 0.893
relative viability ([8]; first compound 0.253 µM): 0.476
relative viability ([8]; first compound 2.53 µM): 0.821
relative viability ([8]; first compound 8 µM): 0.389
relative viability ([9]; first compound 0.253 µM): 1.3
relative viability ([9]; first compound 0.8 µM): 1.15
relative viability ([9]; first compound 2.53 µM): 1.17
relative viability ([9]; first compound 8 µM): 1.26
relative viability ([10]; first compound 0.253 µM): 0.655
relative viability ([10]; first compound 0.8 µM): 0.574
relative viability ([10]; first compound 2.53 µM): 0.555
relative viability ([10]; first compound 8 µM): 0.709
relative viability ([11]; first compound 0.253 µM): 1.09
relative viability ([11]; first compound 0.8 µM): 1.1
relative viability ([11]; first compound 2.53 µM): 1.23
relative viability ([11]; first compound 8 µM): 1.26
relative viability ([12]; first compound 0.253 µM): 0.668
relative viability ([12]; first compound 0.8 µM): 0.564
relative viability ([12]; first compound 2.53 µM): 0.737
relative viability ([12]; first compound 8 µM): 0.666
relative viability ([13]; first compound 0.253 µM): 0.8
relative viability ([13]; first compound 0.8 µM): 0.642
relative viability ([13]; first compound 2.53 µM): 0.776
relative viability ([13]; first compound 8 µM): 0.713
relative viability ([14]; first compound 0.253 µM): 0.521
relative viability ([14]; first compound 0.8 µM): 0.713
relative viability ([14]; first compound 2.53 µM): 0.494
relative viability ([14]; first compound 8 µM): 0.621
relative viability ([15]; first compound 0.253 µM): 0.494
relative viability ([15]; first compound 0.8 µM): 0.402
relative viability ([15]; first compound 2.53 µM): 0.529
relative viability ([15]; first compound 8 µM): 0.449
relative viability ([16]; first compound 0.253 µM): 0.23
relative viability ([16]; first compound 0.8 µM): 0.202
relative viability ([16]; first compound 2.53 µM): 0.213
relative viability ([16]; first compound 8 µM): 0.201
relative viability ([17]; first compound 0.253 µM): 0.578
relative viability ([17]; first compound 0.8 µM): 0.567
relative viability ([17]; first compound 2.53 µM): 0.596
relative viability ([17]; first compound 8 µM): 0.754
relative viability ([18]; first compound 0.253 µM): 0.793
relative viability ([18]; first compound 0.8 µM): 0.878
relative viability ([18]; first compound 2.53 µM): 0.889
relative viability ([18]; first compound 8 µM): 0.887
relative viability ([19]; first compound 0.253 µM): 0.405
relative viability ([19]; first compound 2.53 µM): 0.387
relative viability ([19]; first compound 8 µM): 0.376
relative viability ([20]; first compound 0.253 µM): 0.755
relative viability ([20]; first compound 0.8 µM): 0.796
relative viability ([20]; first compound 2.53 µM): 0.786
relative viability ([20]; first compound 8 µM): 0.589
relative viability ([21]; first compound 0.253 µM): 0.895
relative viability ([21]; first compound 0.8 µM): 0.716
relative viability ([21]; first compound 2.53 µM): 0.985
relative viability ([21]; first compound 8 µM): 0.874

Nc1cccc2c1CN(C1CCC(=O)NC1=O)C2=O (stereo not drawn) [Lenalidomide] + COc1cc2c(Oc3ccc(NC(=O)C4(C(=O)Nc5ccc(F)cc5)CC4)cc3F)ccnc2cc1OCCCN1CCOCC1 [Foretinib] (partner 0.25 µM)
relative viability ([1]; first compound 0.253 µM): 0.739
relative viability ([1]; first compound 0.8 µM): 0.658
relative viability ([1]; first compound 2.53 µM): 0.775
relative viability ([1]; first compound 8 µM): 0.707
relative viability ([2]; first compound 0.253 µM): 1.02
relative viability ([2]; first compound 2.53 µM): 1.14
relative viability ([2]; first compound 8 µM): 1.01
relative viability ([3]; first compound 0.253 µM): 0.822
relative viability ([3]; first compound 0.8 µM): 0.583
relative viability ([3]; first compound 2.53 µM): 0.812
relative viability ([3]; first compound 8 µM): 0.409
relative viability ([4]; first compound 0.253 µM): 0.831
relative viability ([4]; first compound 0.8 µM): 0.789
relative viability ([4]; first compound 2.53 µM): 0.761
relative viability ([4]; first compound 8 µM): 0.599
relative viability ([5]; first compound 0.253 µM): 0.989
relative viability ([5]; first compound 0.8 µM): 1.03
relative viability ([5]; first compound 2.53 µM): 1.28
relative viability ([5]; first compound 8 µM): 1.2
relative viability ([6]; first compound 0.253 µM): 0.881
relative viability ([6]; first compound 0.8 µM): 1.05
relative viability ([6]; first compound 2.53 µM): 0.956
relative viability ([6]; first compound 8 µM): 0.364
relative viability ([7]; first compound 0.253 µM): 0.949
relative viability ([7]; first compound 0.8 µM): 0.873
relative viability ([7]; first compound 2.53 µM): 0.975
relative viability ([7]; first compound 8 µM): 1.06
relative viability ([8]; first compound 0.253 µM): 0.706
relative viability ([8]; first compound 2.53 µM): 1.04
relative viability ([8]; first compound 8 µM): 0.655
relative viability ([9]; first compound 0.253 µM): 1
relative viability ([9]; first compound 0.8 µM): 0.722
relative viability ([9]; first compound 2.53 µM): 1.16
relative viability ([9]; first compound 8 µM): 0.795
relative viability ([22]; first compound 0.253 µM): 1.24
relative viability ([22]; first compound 0.8 µM): 1.23
relative viability ([22]; first compound 2.53 µM): 1.32
relative viability ([22]; first compound 8 µM): 1.22
relative viability ([10]; first compound 0.253 µM): 0.904
relative viability ([10]; first compound 0.8 µM): 0.929
relative viability ([10]; first compound 2.53 µM): 1
relative viability ([10]; first compound 8 µM): 1.05
relative viability ([11]; first compound 0.253 µM): 0.977
relative viability ([11]; first compound 0.8 µM): 1.01
relative viability ([11]; first compound 2.53 µM): 1.07
relative viability ([11]; first compound 8 µM): 1.09
relative viability ([12]; first compound 0.253 µM): 1.21
relative viability ([12]; first compound 0.8 µM): 1.22
relative viability ([12]; first compound 2.53 µM): 1.23
relative viability ([12]; first compound 8 µM): 1.29
relative viability ([23]; first compound 0.253 µM): 0.855
relative viability ([23]; first compound 0.8 µM): 0.822
relative viability ([23]; first compound 2.53 µM): 1.12
relative viability ([23]; first compound 8 µM): 1.16
relative viability ([13]; first compound 0.253 µM): 0.942
relative viability ([13]; first compound 0.8 µM): 0.823
relative viability ([13]; first compound 2.53 µM): 1.07
relative viability ([13]; first compound 8 µM): 1.14
relative viability ([14]; first compound 0.253 µM): 0.47
relative viability ([14]; first compound 0.8 µM): 0.987
relative viability ([14]; first compound 2.53 µM): 0.791
relative viability ([14]; first compound 8 µM): 0.797
relative viability ([24]; first compound 0.253 µM): 0.944
relative viability ([24]; first compound 0.8 µM): 0.991
relative viability ([24]; first compound 2.53 µM): 1.02
relative viability ([24]; first compound 8 µM): 0.844
relative viability ([15]; first compound 0.253 µM): 1.08
relative viability ([15]; first compound 0.8 µM): 1.01
relative viability ([15]; first compound 2.53 µM): 1.11
relative viability ([15]; first compound 8 µM): 0.898
relative viability ([16]; first compound 0.253 µM): 0.795
relative viability ([16]; first compound 0.8 µM): 0.658
relative viability ([16]; first compound 2.53 µM): 0.681
relative viability ([16]; first compound 8 µM): 0.549
relative viability ([17]; first compound 0.253 µM): 0.964
relative viability ([17]; first compound 0.8 µM): 1.02
relative viability ([17]; first compound 2.53 µM): 1.14
relative viability ([17]; first compound 8 µM): 1.07
relative viability ([18]; first compound 0.253 µM): 1.11
relative viability ([18]; first compound 0.8 µM): 0.93
relative viability ([18]; first compound 2.53 µM): 1.13
relative viability ([18]; first compound 8 µM): 1.11
relative viability ([19]; first compound 0.253 µM): 0.958
relative viability ([19]; first compound 0.8 µM): 1.09
relative viability ([19]; first compound 2.53 µM): 1.11
relative viability ([19]; first compound 8 µM): 0.822
relative viability ([20]; first compound 0.253 µM): 0.761
relative viability ([20]; first compound 0.8 µM): 0.806
relative viability ([20]; first compound 2.53 µM): 0.888
relative viability ([20]; first compound 8 µM): 0.682
relative viability ([21]; first compound 0.253 µM): 1
relative viability ([21]; first compound 2.53 µM): 1
relative viability ([21]; first compound 8 µM): 0.983
relative viability ([25]; first compound 0.8 µM): 1.46
relative viability ([25]; first compound 2.53 µM): 1.18
relative viability ([25]; first compound 8 µM): 1.37
